Source: the NIST ThermoML archive (doi:10.1021/je900799e)
Numbers after ± are expanded uncertainties.

Experiment: molar heat capacity at constant pressure
Settings: Liquid, metal-bellows calorimeter

F/C=C/C(F)(F)F [trans-1,3,3,3-tetrafluoropropene]
molar heat capacity at constant pressure [J/K/mol]
Settings	310 K	320 K	330 K	340 K	350 K	360 K	370 K
2000 kPa	165.36 ± 16	168.78 ± 16	175.62 ± 18	188.17 ± 18	206.42 ± 21	–	–
3000 kPa	160.8 ± 16	164.22 ± 16	169.92 ± 16	179.05 ± 18	192.73 ± 18	214.4 ± 21	272.56 ± 27
4000 kPa	157.38 ± 16	160.8 ± 16	166.5 ± 16	169.92 ± 16	182.47 ± 18	195.01 ± 21	224.66 ± 23
5000 kPa	155.1 ± 16	158.52 ± 16	161.94 ± 16	164.22 ± 16	174.48 ± 18	183.61 ± 18	204.13 ± 21
